# Patent publication US8691863B2, “Use of active substance combinations having insecticidal properties for controlling animal pests from the stink bug family” (Bayer CropScience AG, priority 2007, dated 2014)
# What was measured:
# [1] = system: brown stink bug (Euschistus heros); assay: Field trial on soybean plots against brown stink bug, kill efficiency of the nymphs; format: in vivo; details: nymphs on soybean cv. BRS232, 14 days after spray treatment; application rate g a.i./ha: imidacloprid 72, (I-2) 24, mixture 72 + 24, methamidophos 480; tank mix with 0.1% a.i. methylated soya oil
# Excerpt: (§1) The expected activity for a given combination of two active substances can be calculated as described by S. R. Colby, Weeds 15 (1967), 20-22, as follows:
# (§2) If the actual insecticidal kill efficiency is greater than calculated, then the combination is superadditive in its kill efficiency, i.e. a synergistic effect is present. In this case, the kill efficiency actually observed must be greater than the value for the expected kill efficiency (E) calculated with the abovementioned formula.
# (§3) After the desired period of time, the kill efficiency is determined in %. Here, 100% means that all animals have been killed; 0% means that no animals have been killed.
# Methamidophos (SL 600) was tested concomitantly as commercially available standard. The water application rate is 200 l/ha.
# [2] = system: red-banded stink bug (Piezodorus guildinii); assay: Caged soybean plot trial against red-banded stink bug, kill efficiency of the adults; format: in vivo; details: application rate g a.i./ha: imidacloprid 70, (I-2) 24, mixture 72 + 24, methamidophos 480, tank mix with 0.1% a.i. methylated soya oil; for Kill efficiency as calculated by Abbott (%) 1 d: adults on soybean cv. CO-32, 1 day after spray treatment; for Kill efficiency as calculated by Abbott (%) 3 d: adults on soybean cv. CO-32, 3 days after spray treatment
# Excerpt: as §1, §2, §3
# Plots approximately 1 m^2 in size, provided with cages and planted with soybean plants (Glycine max) cv. “CO-32” are treated in four replications against the red-banded stink bug (Piezodorus guildinii) using a pneumatically operated backpack sprayer. A mixture of the active substance (I-2) and imidacloprid (SC 480) is applied in comparison with the active substance (I-2) (SC 240) on its own and imidacloprid (SC 200) on its own at the application rates specified, as a tank mix with 0.1% a.i. methylated soya oil (EC 850). Methamidophos (SL 600) was tested concomitantly as commercially available standard. The water application rate is 300 l/ha. The evaluation is performed 1 and 3 days after the treatment by determining the kill efficiency of the adults.
SMILES,Kill efficiency as calculated by Abbott (%) 14 d [1],Kill efficiency as calculated by Abbott (%) 1 d [2],Kill efficiency as calculated by Abbott (%) 3 d [2]
"O=[N+]([O-])/N=C1\NCCN1Cc1ccc(Cl)nc1 [Imidacloprid, imidacloprid]",21%,65%,65%
COP(N)(=O)SC (stereo not drawn) [Methamidophos],27%,52.5%,87.5%
